Measurements from PMC8166143, “Ecotoxicity evaluation of polymeric nanoparticles loaded with ascorbic acid for fish nutrition in aquaculture” (Journal of Nanobiotechnology, 2021).
In brackets after ≈: the same amount, converted by molar mass.

Key:
[1] = AA release kinetics, two-compartment system, and mathematical modeling; assay type: physicochemical
Method: The profiles of AA release from the nanoparticles were evaluated using a two-compartment system composed of a donor compartment (2 mL) and an acceptor compartment (50 mL), separated by a cellulose membrane (1000 Da exclusion pore size) under slight stirring and room temperature (25 °C). Aliquots (1 mL) were periodically collected from the acceptor compartment, with the volume being replaced with 1 mL of water to maintain a constant volume. The aliquots removed were analyzed by HPLC and the results were converted to percentages of released AA. The assays were performed in triplicate. Zero order, first order, Higuchi and Korsmeyer-Peppas mathematical models were used to elucidate the release mechanism of AA from all formulations.

[2] = AA oxidation kinetics induced by peroxymonosulfate (Oxone); assay type: physicochemical
Method: (§1) The oxidation profiles of AA, alone and encapsulated in the CS and PCL nanoparticles, were evaluated using the method described previously. A stock solution of AA was prepared by dissolving 50 mg of AA in 250 mL of stabilizing solution (EDTA). The absorbance of this solution was measured at 265 nm, with the stabilizing solution used as the background. Separately, a solution of Oxone (potassium peroxymonosulfate, Sigma-Aldrich) was prepared in 50 mL of EDTA solution. An aliquot of AA solution was mixed with 3 mL of Oxone solution and completed to 25 mL with the stabilizing solution, resulting in a solution with 10 μg mL^−1 of AA. The same procedure was performed for the CS and PCL nanoparticles loaded with AA. The absorbance value of the solution containing only AA, minus the absorbance value of the solution containing AA and Oxone, was proportional to the concentration of AA present in the sample. For oxidation studies under aquarium conditions, 9 aquaria were used (3 per treatment), each containing a final volume of 3 L and fitted with an aeration pump. The parameters set for the experiment were 28 °C, pH 7 ± 0.5, and 25 µg mL^−1 of AA (the concentration used in the in vivo assays). At predetermined times, 1 mL aliquots were collected, and the amount of AA was determined using HPLC. The results were presented as % viable ascorbic acid. The assays were performed in triplicate (n = 3).

[3] = AA oxidation under aquarium conditions; assay type: physicochemical
Method: as §1

[4] = Toxicity evaluation using zebrafish (mortality, LC values, hatching, morphology; 3.12-400 mg/L, 96 h); details: zebrafish (Danio rerio), in vivo
Method: (§2) Preliminary tests were performed to determine the lethal concentration (LC50, mg/L). For this experiment, 24-well polystyrene plates were used, with the embryos being individually exposed to 2 mL of the test solution (n = 24 per group). […] The positive control was 4 mg L^−1 of 3,5-dichloroaniline (≥ 98%, Sigma-Aldrich). The plates were examined every 24 h to determine the mortality of the embryos and larvae, using a stereomicroscope (Model SMZ 2 LED, Optika) and Optika View v. 7.1.1.5 software. […] 1.17.04 software.

[5] = test system: zebrafish embryos and larvae; test: as above
Method: as §2

zebrafish larvae = test: Zebrafish motor activity (distance traveled, speed); assay type: in vivo, Danio rerio
Method: After 96 h, the larvae were distributed individually in 96-well plates, with each well containing 100 µL of embryo medium and 100 µL of test solution (total volume = 200 µL). The behaviors of the larvae were recorded individually for 10 min (at 28 °C) and were analyzed using EthovisionXT software (Noldus). The parameters considered were speed (mm/s) and distance covered.

[6] = test system: zebrafish embryos and larvae; details: after 96 h of exposure
Method: The embryos were kept individually in 24-well polystyrene plates (n = 24 organisms per group), with addition of 2 mL of test solution to each well. The temperature was maintained at 26 ± 0.2 °C and a light/dark photoperiod of 14/10 h was provided. Determinations were made of mortality and morphological abnormalities including changes in heartbeat, presence of coagulation, undetected tail, change in head formation, disintegration of larvae, pericardial edema, yolk sac edema and opacity, and defective development of the somite.
The total length of the larvae (mm) was measured from the mouth to the terminal portion of the tail.
Mortality was defined as the presence of coagulation, lack of heartbeat, failure of somite development, and undeveloped tail. The hatching rate was calculated considering the successful hatching of embryos in relation to the total number of embryos in each replicate. The observed malformations included pericardial edema, tail deformity, yolk sac edema, and spinal curvature.
The malformation rate was determined considering the percentage of malformed larvae in relation to the total number of larvae that hatched during the test. […] The equipment was previously calibrated using a millimeter scale.

AChE = details: ref Sandahl et al. [76], cited from earlier work

SMILES: O=C1O[C@H]([C@@H](O)CO)C(O)=C1O [AA, L-ascorbic acid]
- AA released (acceptor compartment) ([1]; after 60 min, 25 °C, water): 39 ± 0.2%
- AA released (acceptor compartment) ([1]; after 210 min): 51 ± 0.9%
- AA concentration after addition of the oxidizing agent ([2]; first minute, initial 10 μg mL^−1 AA, peroxymonosulfate): 2.5 ± 0.01 µg/mL
- time to total degradation of AA ([2]; peroxymonosulfate oxidizing agent): 7 min
- time to total degradation of AA [3]: 120 min
- AA degraded ([3]; first 60 min): almost half
- LC50 at 96 h [4]: 331 µg/mL (≈ 1880 µM)
- mortality ([5]; 400 mg/L, 96 h): 75%
- malformations compared to NPs_CS_AA at the same concentrations ([5]; 25 and 50 mg L^−1): higher numbers of malformations
- hatching rate compared to the control group ([5]; 100 and 200 mg L^−1, after 96 h): more pronounced decreases in hatching
- LC10 ([5]; 96 h, probit analysis): 53.0 µg/mL (≈ 301 µM)
- LC20 ([5]; 96 h, probit analysis): 148.3 µg/mL (≈ 842 µM)
- LC30 ([5]; 96 h, probit analysis): 217.1 µg/mL (≈ 1230 µM)
- LC40 ([5]; 96 h, probit analysis): 275.8 µg/mL (≈ 1570 µM)
- hatching rate compared to the control group ([5]; after 48 h of exposure): lower
- mortality ([5]; all concentrations tested except 400 mg L^−1, 96 h): below 30%
- distance traveled, dose dependence (zebrafish larvae; LC10-LC50, 96 h exposure): dose-dependent increase in the distance traveled
- swimming speed, dose dependence (zebrafish larvae; LC10-LC50, 96 h exposure): dose-dependent increases in speed
- distance traveled compared to the control group (zebrafish larvae; LC50, 96 h exposure): significant (p < 0.05) increase in the distance traveled
- distance traveled compared to the control group (zebrafish larvae; up to the LC30 concentration): shorter
- hatching rate ([6]; LC50 concentration): 16.6%
- malformations of embryos and larvae ([6]; LC50 dose): edema and opacity of the yolk sac, edema of the pericardium, malformation of the tail, and bent spine

SMILES: CCOP(=S)(OCC)Oc1nc(Cl)c(Cl)cc1Cl [chlorpyrifos]
- relative AChE activity compared to the control (AChE; at 0.6 µg L^−1): 77.2%
- exposure concentration with significant decreases in swimming activity (AChE): 0.6 µg/L
